Series [1] in a line: Bisphosphonate concentration at about 90% saturation in vehicles. It counts as physicochemical.
The subject of series [2] is human abdominal dermatomed skin. As to the kind of experiment: In vitro dermal absorption, Franz cell assay. It counts as in vitro ADME.
In another series the test system is ovariectomized rats. The text has this:
Ovariectomized rats are a recognised model for bone loss study, as the surgical operation causes an estrogen deficiency which results in rapid bone loss. See Guideline on the evaluation of medicinal products in the treatment of primary osteoporosis, CPMP/EWP/552/95 available for download from the European Medicine Agency at: http://www.emea.europa.eu/.
13-week old rats (Sprague-Dawley, virgin female), 8 per group, were sham operated (group 1-control) or ovariectomized (OVX) (groups 2 to 7) on the day before the first day of treatment. […] The ratio of D-Pyr to Creat is a recognised marker of bone resorption. See, e.g., Christenson RH “Biochemical markers of bone metabolism: an overview” Clin Biochem 1997, 30(8), 573-593.
Femur and L2-L5 lumbar vertebrae block Bone Mineral Density (BMD) were calculated from in vivo Dual-energy X-ray Absorptiometry (DXA) measurement at the same time points with an Hologic apparatus. BMD was also measured ex vivo on dissected femur and L4 vertebrae at the end of the treatment period.

For series [3] the following is noted: humans; cited from earlier work.
The conditions of series [4]: rat, published data (Lin et al., J Pharm Sci); cited from earlier work.
The nature of series [5]: Solubility of menthol in hydroalcoholic mixtures with bisphosphonate at 90% saturation (GC-FID). The note with it: QS 100 g phosphate buffer pH 6.
Where [6] appears, read: buffered hydroalcoholic solution 90/10 buffer/ethanol.
Setting [7] is: group 3: OVX rats, 2 μg/kg sc inj daily.
Where [8] appears, read: group 4: OVX rats, topical 4.46 mg/kg daily (15.6 mg/kg/d for first 2 weeks).
The mark [9] stands for this setting: group 5: OVX rats, topical 15.6 mg/kg weekly.
Setting [10] is: group 7: OVX rats, topical 10.85 mg/kg twice weekly (15.6 mg/kg twice a week for first 2 weeks).

Like-named read-outs stand apart in the source and are kept apart here.

For the compound `O=P(O)(O)C(O)(Cc1cccnc1)P(=O)(O)O` [risedronate, 1-hydroxy-2-(3-pyridyl)ethylidene-1,1-bisphosphonic acid], the entries for the “concentration of anhydrous monosodium salt at 90% saturation” value in series [1] (setting [6]) and in series [1] (pure water) were 22.4 mg/g and 45.3 mg/g, respectively. In series [2] (FIGS. 12-13), the “effect of glycerine on amount recovered in the receptor fluid and the dermis” value is listed as “does not significantly increase”. Also, in series [2] (Franz cell, human skin, 24 hrs), the “percutaneous absorption: recovery in the receptor fluid and the dermis” value is “does cross the skin”. Besides, the “effect of urea on amount recovered in the receptor fluid and dermis/skin” value in series [2] (buffered solution vs 100% phosphate buffer, FIGS. 10-11) is given as “increases”. For the same compound, the “effect of menthol on amount recovered in the receptor fluid and dermis” value in series [2] (menthol at 90% of saturating concentration in 90/10 phosphate buffer/ethanol vs phosphate buffer solution, FIGS. 6-7) is reported as “does not increase”. Also, the “amount recovered in the receptor fluid and the dermis with oleic acid” value in series [2] (oleic acid at 90% of maximum solubility in 90/10 phosphate buffer/ethanol with Tween 80 4.5%, vs 100% phosphate buffer solution) is “lower”. Besides, the “effect of urea on amount recovered in the receptor fluid and dermis” value in series [2] (urea in phosphate buffer solution, FIGS. 8-9) was “neutral effect”. Moreover, in series [2] (vs 100% phosphate buffer solution, FIGS. 10-11), the “effect of propylene glycol (PG) on amount recovered” value is reported as “does not significantly affect”. In addition, in series [2] (water/alcohol solutions, FIGS. 1-2), the “effect of the increase in alcohol content on absorption (percentage of the dose applied)” value was “slightly increased”.

As for `NCCCC(O)(P(=O)(O)O)P(=O)(O)O` [alendronate, 4-amino-1-hydroxybutylidene-1,1-bisphosphonic acid], the “concentration of anhydrous monosodium salt at 90% saturation” value stood at 10.4 mg/g in series [1] (setting [6]) and 28.09 mg/g in series [1] (pure water). Moreover, the “BMD results compared with subcutaneous injection (group 3) or control (group 1)” value with ovariectomized rats (OVX rats treated with topical alendronate, groups 4-7) is “similar”. Also, the “Ex vivo BMD L4 vertebrae Week 8” value stood at 0.251 ± 0.012 g/cm^2 in the series with ovariectomized rats (setting [7]), 0.26 ± 0.01 g/cm^2 in the series with ovariectomized rats (setting [8]), 0.255 ± 0.017 g/cm^2 with ovariectomized rats (setting [9]) and 0.261 ± 0.015 g/cm^2 with ovariectomized rats (setting [10]). Further, the “In vivo BMD Vertebrae Evolution (Week 8 − Baseline)” value in the series with ovariectomized rats (setting [7]) amounted to 0.035 ± 0.01 g/cm^2; in the series with ovariectomized rats (setting [8]), 0.035 ± 0.012 g/cm^2; in the series with ovariectomized rats (setting [9]), 0.023 ± 0.012 g/cm^2; in the series on ovariectomized rats (setting [10]), 0.028 ± 0.008 g/cm^2. The “In vivo BMD metaphysis Week 8” value stood at 0.243 ± 0.029 g/cm^2 in the series on ovariectomized rats (setting [7]), 0.270 ± 0.032 g/cm^2 with ovariectomized rats (setting [8]), 0.252 ± 0.009 g/cm^2 with ovariectomized rats (setting [9]) and 0.264 ± 0.027 g/cm^2 in the series on ovariectomized rats (setting [10]). Moreover, the “In vivo BMD total femur Evolution (Week 8 − Baseline)” value is given as 0.035 ± 0.015 g/cm^2 with ovariectomized rats (setting [7]), 0.04 ± 0.008 g/cm^2 in the series on ovariectomized rats (setting [8]), 0.023 ± 0.016 g/cm^2 in the series with ovariectomized rats (setting [9]) and 0.032 ± 0.025 g/cm^2 in the series with ovariectomized rats (setting [10]). The “In vivo BMD total femur Week 8” value in the series on ovariectomized rats (setting [7]) is given as 0.291 ± 0.013 g/cm^2; in the series with ovariectomized rats (setting [8]) it was 0.302 ± 0.015 g/cm^2; in the series with ovariectomized rats (setting [9]), 0.293 ± 0.011 g/cm^2; with ovariectomized rats (setting [10]) it was 0.304 ± 0.024 g/cm^2. Also, the dermal tolerance problems entry in the series on ovariectomized rats (groups 4 and 7, topical 15.6 mg/kg/d and 15.6 mg/kg twice a week, doses reduced after 2 weeks) is reported as “formation of dry scabs”. The “BMD in the distal metaphysis (part of femur) compared with subcutaneous injection group (group 3)” value in the series on ovariectomized rats (topically treated groups 4 and 7) is “statistically higher”. In addition, in series [3], the “systemic dose recovered in the urine” value is given as “approximately 50%”. For the same compound, in series [4], the “bone recovery after oral administration” value is reported as 0.9%.

Turning to `O=P([O-])(O)C(O)(Cc1cccnc1)P(=O)(O)O.[Na+]` [Sodium Risedronate], the “anhydrous concentration (w/w) at about 90% saturation” value in series [1] (Water/ethanol ratio (v/v) 50/50) turned out to be 0.02%; in series [1] (Water/ethanol ratio (v/v) 60/40), 0.17%; in series [1] (Water/ethanol ratio (v/v) 70/30), 0.22%; in series [1] (Water/ethanol ratio (v/v) 80/20), 0.77%; in series [1] (Water/ethanol ratio (v/v) 90/10), 1.66%.

Consider `CC1CCC(C(C)C)C(O)C1` (stereo not shown) [menthol], for which, in series [5] (10 g ethanol absolute), the “Solubility of menthol in the presence of sodium alendronate” value turned out to be 70 mg/100 g and the “Solubility of menthol in the presence of sodium risedronate” value is listed as 80 mg/100 g. Further, in series [5] (20 g ethanol absolute), the “Solubility of menthol in the presence of sodium alendronate” value amounted to 120 mg/100 g and the “Solubility of menthol in the presence of sodium risedronate” value came out at 140 mg/100 g.

These data come from patent US20080167271A1, “PHARMACEUTICAL COMPOSITIONS COMPRISING A BISPHOSPHONATE COMPOUND” (Besins Healthcare SA, priority 2006, published 2008).
